Results taken from patent US9856216B2, “Compounds as TNIK, IKKε and TBK1 inhibitors and pharmaceutical composition comprising same” (GREEN CROSS CORPORATION, priority 2015, dated 2018).

What follows are compounds tested against T1, TNIK (Homo sapiens, UniProt Q9UKE5) (assay: ADP-Glo Kinase Assay, inhibition activity on TNIK). Conditions: not given.
T1 construct: purchased Promega V4158
Type: biochemical
Method: The inhibition activities on TNIK, IKKε and TBK1 were measured by a luminometer, TNIK/IKKε/TBK1 Kinase Enzyme System (Promega, Ca# V4158; Invitrogen, PR8031B, Promega, Ca# V3991) and ADP-Glo Kinase Assay using ADP-Glo™ Kinase Analysis Kit (Promega, Ca# V9101) and a kinase reaction buffer [40 mM Tris(pH 7.5), 20 mM MgCl2, 0.1 mg/mL BSA] in accordance with the manufacturer's protocol.

T1 sequence (Q9UKE5 1-367 limits assumed): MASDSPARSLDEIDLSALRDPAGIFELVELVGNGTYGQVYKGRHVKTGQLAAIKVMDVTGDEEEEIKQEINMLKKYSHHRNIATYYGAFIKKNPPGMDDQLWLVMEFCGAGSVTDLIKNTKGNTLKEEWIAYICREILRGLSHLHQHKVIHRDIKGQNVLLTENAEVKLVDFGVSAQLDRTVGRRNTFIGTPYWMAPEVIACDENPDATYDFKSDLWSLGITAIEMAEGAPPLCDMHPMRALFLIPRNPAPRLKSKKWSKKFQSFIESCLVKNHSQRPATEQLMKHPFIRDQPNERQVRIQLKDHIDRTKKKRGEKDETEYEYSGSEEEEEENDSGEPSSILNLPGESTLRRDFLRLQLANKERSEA

| TNIK (μM) | Compound |
| --- | --- |
| Insoluble | O=C1NCc2c(-c3ccccc3)ccc(NCCN3C(=O)c4ccccc4C3=O)c21 [Example 257, 2-(2-((3-Oxo-7-phenylisoindolin-4-yl)amino)ethyl)isoindolin-1,3-dione] |
| Insoluble | O=C1NCc2c(-c3ccccc3)ccc(NCCCN3C(=O)c4ccccc4C3=O)c21 [Example 264, 2-(3-((3-Oxo-7-phenylisoindolin-4-yl)amino)propyl)isoindolin-1,3-dione] |
| Insoluble | COc1cccc(-c2ccc(N)c3c2C(=O)NC3=O)c1OC [Example 273, 4-Amino-7-(2,3-dimethoxyphenyl)isoindolin-1,3-dione] |

Same assay, conditions: TNIK (μM)

| Compound | IC50 |
| --- | --- |
| O=C1NCc2c(-c3ccccc3)ccc(NCCCl)c21 [Example 253, 7-((2-Chloroethyl)amino)-4-phenylisoindolin-1-one] | 2.6 µM |

Same assay, conditions: read-out: TNIK

| IC50 | Compound |
| --- | --- |
| 0.58 µM | CCNC(=O)Nc1ccc(-c2ccccc2)c2c1C(=O)NC2 [Example 236, 1-Ethyl-3-(3-oxo-7-phenylisoindolin-4-yl)urea] |
| 4.9 µM | CC(=O)c1ccc(NC(=O)Nc2ccc(-c3ccccc3)c3c2C(=O)NC3)cc1 [Example 237, 1-(4-Acetylphenyl)-3-(3-oxo-7-phenylisoindolin-4-yl)urea] |
| > 20 µM | Cc1ccccc1NC(=O)Nc1ccc(-c2ccccc2)c2c1C(=O)NC2 [Example 238, 1-(3-Oxo-7-phenylisoindolin-4-yl)-3-(o-tolyl)urea] |
| > 20 µM | O=C(Nc1ccc(-c2ccccc2)c2c1C(=O)NC2)NC1CCCC1 [Example 239, 1-Cyclopentyl-3-(3-oxo-7-phenylisoindolin-4-yl)urea] |
| 2.4 µM | O=C(Nc1cccc(F)c1)Nc1ccc(-c2ccccc2)c2c1C(=O)NC2 [Example 240, 1-(3-Fluorophenyl)-3-(3-oxo-7-phenylisoindolin-4-yl)urea] |
| 2.7 µM | CSc1cccc(NC(=O)Nc2ccc(-c3ccccc3)c3c2C(=O)NC3)c1 [Example 241, 1-(3-(Methylthio)phenyl)-3-(3-oxo-7-phenylisoindolin-4-yl) urea] |
| 2.3 µM | O=C(Nc1ccccc1F)Nc1ccc(-c2ccccc2)c2c1C(=O)NC2 [Example 242, 1-(2-Fluorophenyl)-3-(3-oxo-7-phenylisoindolin-4-yl)urea] |
| 3.9 µM | O=C(Nc1ccc(Cl)cc1)Nc1ccc(-c2ccccc2)c2c1C(=O)NC2 [Example 243, 1-(4-Chlorophenyl)-3-(3-oxo-7-phenylisoindolin-4-yl)urea] |
| 4.02 µM | COc1ccc(-c2ccc(NC(=O)Nc3ccccc3)c3c2CNC3=O)cc1 [Example 244, 1-(7-(4-Methoxyphenyl)-3-oxoisoindolin-4-yl)-3-phenylurea] |
| 6.5 µM | O=C(Nc1ccccc1)Nc1ccc(-c2ccc(F)cc2)c2c1C(=O)NC2 [Example 245, 1-(7-(4-Fluorophenyl)-3-oxoisoindolin-4-yl)-3-phenylurea] |
| > 20 µM | Nc1ccc(-c2ccccc2)c2c1C(=O)N(C(=O)NC1CCCCC1)C2 [Example 246, 7-Amino-N-cyclohexyl-1-oxo-4-phenylisoindolin-2-carboxamide] |
| > 20 µM | O=C1NCc2c(-c3ccccc3)ccc(NC(=S)Nc3ccccc3)c21 [Example 247, 1-(3-Oxo-7-phenylisoindolin-4-yl)-3-phenylthiourea] |
| > 20 µM | O=C1NCc2c(-c3ccccc3)ccc(NS(=O)(=O)c3ccccc3)c21 [Example 249, N-(3-oxo-7-phenylisoindolin-4-yl)benzenesulfonamide] |
| 21 µM | CS(=O)(=O)Nc1ccc(-c2ccccc2)c2c1C(=O)NC2 [Example 250, N-(3-oxo-7-phenylisoindolin-4-yl)methanesulfonamide] |
| > 20 µM | O=C1NCc2c(-c3ccccc3)ccc(NS(=O)(=O)c3ccc(F)cc3)c21 [Example 251, 4-Fluoro-N-(3-oxo-7-phenylisoindolin-4-yl)benzene sulfonamide] |
| > 20 µM | COc1ccc(S(=O)(=O)Nc2ccc(-c3ccccc3)c3c2C(=O)NC3)cc1 [Example 252, 4-Methoxy-N-(3-oxo-7-phenylisoindolin-4-yl)benzene sulfonamide] |
| 5.6 µM | N#CCCNc1ccc(-c2ccccc2)c2c1C(=O)NC2 [Example 254, 3-((3-Oxo-7-phenylisoindolin-4-yl)amino)propanenitrile] |
| > 20 µM | CN(C)CCNc1ccc(-c2ccccc2)c2c1C(=O)NC2 [Example 255, 7-((2-(Dimethylamino)ethyl)amino)-4-phenylisoindolin-1-one] |
| 4.9 µM | O=C1NCc2c(-c3ccccc3)ccc(NCCO)c21 [Example 256, 7-((2-Hydroxyethyl)amino)-4-phenylisoindolin-1-one] |
| > 20 µM | CN1CCN(CCNc2ccc(-c3ccccc3)c3c2C(=O)NC3)CC1 [Example 258, 7-((2-(4-Methylpiperazin-1-yl)ethyl)amino)-4-phenylisoindolin-1-one] |
| > 20 µM | O=C1NCc2c(-c3ccccc3)ccc(NCCN3CCCCC3)c21 [Example 259, 4-Phenyl-7-((2-(piperidin-1-yl)ethyl)amino)isoindolin-1-one] |
| > 20 µM | O=C1NCc2c(-c3ccccc3)ccc(NCCN3CCOCC3)c21 [Example 260, 7-((2-Morpholinoethyl)amino)-4-phenylisoindolin-1-one] |

| IC50 | Compound |
| --- | --- |
| > 20 µM | CNCCNc1ccc(-c2ccccc2)c2c1C(=O)NC2 [Example 261, 7-((2-(Methylamino)ethyl)amino)-4-phenylisoindolin-1-one] |
| > 20 µM | O=C1NCc2c(-c3ccccc3)ccc(NCCN3CCCC3)c21 [Example 262, 4-Phenyl-7-((2-(pyrrolidin-1-yl)ethyl)amino)isoindolin-1-one] |
| > 20 µM | O=C1NCc2c(-c3ccccc3)ccc(NCc3ccccc3)c21 [Example 263, 7-(Benzylamino)-4-phenylisoindolin-1-one] |
| 2.5 µM | Nc1ccc(-c2ccccc2)c2c1C(=O)NC2=O [Example 271, 4-Amino-7-phenylisoindolin-1,3-dione] |
| 10.9 µM | COc1ccccc1-c1ccc(N)c2c1C(=O)NC2=O [Example 272, 4-Amino-7-(2-methoxyphenyl)isoindolin-1,3-dione] |
| 3.6 µM | Nc1ccc(-c2ccco2)c2c1C(=O)NC2=O [Example 274, 4-Amino-7-(furan-2-yl)isoindolin-1,3-dione] |
| 1.1 µM | Nc1ccc(-c2cccs2)c2c1C(=O)NC2=O [Example 275, 4-Amino-7-(thiophen-2-yl)isoindolin-1,3-dione] |
| 1.1 µM | O=C(Nc1ccc(-c2ccccc2)c2c1C(=O)NC2=O)c1ccccc1 [Example 276, N-(1,3-dioxo-7-phenylisoindolin-4-yl)benzamide] |
| 0.65 µM | COc1ccccc1-c1ccc(NC(=O)c2ccccc2)c2c1C(=O)NC2=O [Example 277, N-(7-(2-methoxyphenyl)-1,3-dioxoisoindolin-4-yl)benzamide] |
| 0.41 µM | COc1cccc(-c2ccc(NC(=O)c3ccccc3)c3c2C(=O)NC3=O)c1OC [Example 278, N-(7-(2,3-dimethoxyphenyl)-1,3-dioxoisoindolin-4-yl) benzamide] |
| > 20 µM | O=C(Nc1ncc(-c2ccccc2)c2c1C(=O)NC2)c1ccc(F)cc1 [Example 279, 4-Fluoro-N-(3-oxo-7-phenyl-2,3-dihydro-1H-pyrrolo[3,4-c]pyridin-4-yl)benzamide] |
| 0.073 µM | COc1cccc(-c2ccc(NC(=O)c3ccc(NCCCN4CCCC4)cc3)c3c2CNC3=O)c1OC [Example 280, N-(7-(2,3-dimethoxyphenyl)-3-oxoisoindolin-4-yl)-4-((3-(pyrrolidin-1-yl)propyl)amino)benzamide] |
| 2.42 µM | CN(C)CCNc1ccc(C(=O)Nc2ccc(Br)c3c2C(=O)NC3)cc1 [Example 281, N-(7-bromo-3-oxoisoindolin-4-yl)-4-((2-(dimethylamino)ethyl)amino)benzamide] |
| 1.4 µM | O=C(Nc1ccc(Br)c2c1C(=O)NC2)c1ccc(NCCCN2CCCCC2)cc1 [Example 282, N-(7-bromo-3-oxoisoindolin-4-yl)-4-((3-(piperidin-1-yl)propyl)amino)benzamide] |
| 1.76 µM | O=C(Nc1ccc(Br)c2c1C(=O)NC2)c1ccc(NCCN2CCCC2)cc1 [Example 283, N-(7-bromo-3-oxoisoindolin-4-yl)-4-((2-(pyrrolidin-1-yl)ethyl)amino)benzamide] |
| 1.55 µM | O=C(Nc1ccc(Br)c2c1C(=O)NC2)c1ccc(NCCN2CCCCC2)cc1 [Example 284, N-(7-bromo-3-oxoisoindolin-4-yl)-4-((2-(piperidin-1-yl)ethyl)amino)benzamide] |
| 1.13 µM | O=C(Nc1ccc(Br)c2c1C(=O)NC2)c1ccc(NCCN2CCCCCC2)cc1 [Example 285, 4-((2-(azepan-1-yl)ethyl)amino)-N-(7-bromo-3-oxoisoindolin-4-yl)benzamide] |
| 1.48 µM | CN(C)CCCNc1ccc(C(=O)Nc2ccc(Br)c3c2C(=O)NC3)cc1 [Example 286, N-(7-bromo-3-oxoisoindolin-4-yl)-4-((3-(dimethylamino)propyl)amino)benzamide] |
| 0.66 µM | O=C(Nc1ccc(-c2ccco2)c2c1C(=O)NC2)c1ccc(NCCN2CCCC2)cc1 [Example 287, N-(7-(furan-2-yl)-3-oxoisoindolin-4-yl)-4-((2-(pyrrolidin-1-yl)ethyl)amino)benzamide] |
| 0.45 µM | COCCNc1ccc(C(=O)Nc2ccc(-c3ccco3)c3c2C(=O)NC3)cc1 [Example 288, N-(7-(furan-2-yl)-3-oxoisoindolin-4-yl)-4-((2-methoxyethyl)amino)benzamide] |
| 0.36 µM | O=C(Nc1ccc(-c2ccco2)c2c1C(=O)NC2)c1ccc(NCCN2CCCCC2)cc1 [Example 289, N-(7-(furan-2-yl)-3-oxoisoindolin-4-yl)-4-((2-(piperidin-1-yl)ethyl)amino)benzamide] |

| Compound | IC50 |
| --- | --- |
| O=C(Nc1ccc(-c2ccccc2)c2c1C(=O)NC2)Oc1ccccc1 [Example 248, Phenyl (3-oxo-7-phenylisoindolin-4-yl)carbamate] | > 20 µM |
